Experimental data as given in patent US20100292255A1, “Therapeutic Compounds and Their Use in Treating Diseases and Disorders” (Myriad Pharmaceuticals, Inc., priority 2007, published 2010).

test system: T1, purified human Hsp90; assay: Hsp90 binding assay: displacement of BODIPY-labeled geldanamycin measured by fluorescence polarization; conditions: 5 μM compound; BODIPY-GM 10 nM, Hsp90 30 nM, overnight at room temperature
T1 construct: purified human Hsp90 (Stressgen, SPP-770)
In short: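 Fluorescence polarization measured displacement of BODIPY-geldanamycin (10 nM) from purified human Hsp90 (30 nM). The buffer was HEPES-KOH pH 7.3 with molybdate, NP-40, gamma globulin and DTT, 2% DMSO, overnight at room temperature, ex/em 485/530 nm. % inhibition was calculated against DMSO controls, and points confounded by compound fluorescence were excluded.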

| Structure (SMILES) | GM displacement from purified Hsp90 measured by FP Inhibition by 5 μM compd. (%) |
| --- | --- |
| N#Cc1cc2c(cc1Sc1nc3c(N)ncn(CCC4CCN(C(=O)[C@@H](N)C(F)(F)F)CC4)c-3n1)OCO2 [compound 134, 6-[(6-amino-3-{2-[1-(3,3,3-trifluoroalanyl)piperidin-4-yl]ethyl}-3H-purin-8-yl)thio]-1,3-benzodioxole-5-carbonitrile] | 9.0 |
| CN(C)C(CCn1cnc(N)c2nc(Sc3cc4c(cc3Br)OCCO4)nc1-2)C1CC1 (stereo not drawn) [compound 143, 8-[(7-bromo-2,3-dihydro-1,4-benzodioxin-6-yl)thio]-3-[3-cyclopropyl-3-(dimethylamino)propyl]-3H-purin-6-amine] | 27.0 |

same assay, conditions: BODIPY-GM 10 nM, Hsp90 30 nM, overnight at room temperature; read-out: GM displacement from purified Hsp90 measured by FP IC 50

| Structure (SMILES) | IC50 [nM] |
| --- | --- |
| C[C@@H](N)C(=O)N1CCC(Cn2c(Sc3cc4c(cc3Br)OCCO4)nc3c(N)ncnc32)CC1 [compound 124, 9-([1-[(2R)-2-Aminopropanoyl]piperidin-4-yl}methyl)-8-[(7-bromo-2,3-dihydro-1,4-benzodioxin-6-yl)thio]-9H-purin-6-amine] | 295 |
| C[C@H](N)C(=O)N1CCC(Cn2c(Sc3cc4c(cc3Br)OCCO4)nc3c(N)ncnc32)CC1 [compound 125, 9-({1-[(2S)-2-Aminopropanoyl]piperidin-4-yl}methyl)-8-[(7-bromo-2,3-dihydro-1,4-benzodioxin-6-yl)thio]-9H-purin-6-amine] | 500 |
| C[C@H](O)C(=O)N[C@H](C)C(=O)N1CCC(Cn2c(Sc3cc4c(cc3Br)OCCO4)nc3c(N)ncnc32)CC1 [compound 126, (2S)-N-{(1R)-2-[4-({6-Amino-8-[(7-bromo-2,3-dihydro-1,4-benzodioxin-6-yl)thio]-9H-purin-9-yl}methyl)piperidin-1-yl]-1-methyl-2-oxoethyl}-2-hydroxypropanamide] | > 5000 |
| C[C@@H](NC(=O)[C@@H](C)OC(=O)C(C)(C)C)C(=O)N1CCC(Cn2c(Sc3cc4c(cc3Br)OCCO4)nc3c(N)ncnc32)CC1 [compound 127, (1R)-2-({(1R)-2-[4-({6-amino-8-[(7-bromo-2,3-dihydro-1,4-benzodioxin-6-yl)thio]-9H-purin-9-yl}methyl)piperidin-1-yl]-1-methyl-2-oxoethyl}amino)-1-methyl-2-oxoethyl pivalate] | > 5000 |
| C[C@@H](NC(=O)C(C)(C)C)C(=O)N1CCC(Cn2c(Sc3cc4c(cc3Br)OCCO4)nc3c(N)ncnc32)CC1 [compound 128, N-{(1R)-2-[4-({6-amino-8-[(7-bromo-2,3-dihydro-1,4-benzodioxin-6-yl)thio]-9H-purin-9-yl}methyl)piperidin-1-yl]-1-methyl-2-oxoethyl}-2,2-dimethylpropanamide] | 440 |
| C[C@@H](NC(=O)CC(C)(C)C)C(=O)N1CCC(Cn2c(Sc3cc4c(cc3Br)OCCO4)nc3c(N)ncnc32)CC1 [compound 129, N-{(1R)-2-[4-({6-Amino-8-[(7-bromo-2,3-dihydro-1,4-benzodioxin-6-yl)thio]-9H-purin-9-yl}methyl)piperidin-1-yl]-1-methyl-2-oxoethyl}-3,3-dimethylbutanamide] | 3000 |
| C[C@H](O)C(=O)N[C@@H](C)C(=O)N1CCC(Cn2c(Sc3cc4c(cc3Br)OCCO4)nc3c(N)ncnc32)CC1 [compound 130, (2S)—N-{(1S)-2-[4-({6-Amino-8-[(7-bromo-2,3-dihydro-1,4-benzodioxin-6-yl)thio]-9H-purin-9-yl}methyl)piperidin-1-yl]-1-methyl-2-oxoethyl}-2-hydroxypropanamide] | 1100 |
| C[C@H](NC(=O)CO)C(=O)N1CCC(Cn2c(Sc3cc4c(cc3Br)OCCO4)nc3c(N)ncnc32)CC1 [compound 131, N-{(1S)-2-[4-({6-Amino-8-[(7-bromo-2,3-dihydro-1,4-benzodioxin-6-yl)thio]-9H-purin-9-yl}methyl)piperidin-1-yl]-1-methyl-2-oxoethyl}-2-hydroxyacetamide] | 1900 |
| N#Cc1cc2c(cc1Sc1nc3c(N)ncnc3n1CCC1CCN(C(=O)[C@@H](N)C(F)(F)F)CC1)OCO2 [compound 133, 6-[(6-Amino-9-{2-[1-(3,3,3-trifluoroalanyl)piperidin-4-yl]ethyl}-9H-purin-8-yl)thio]-1,3-benzodioxole-5-carbonitrile] | 505 |
| N#Cc1cc2c(cc1Sc1nc3c(N)ncnc3n1CCC1CCN(C(=O)[C@@H]3CC(F)(F)CN3)CC1)OCO2 [compound 135, 6-[(6-Amino-9-{2-[1-(4,4-difluoro-L-prolyl)piperidin-4-yl]ethyl}-9H-purin-8-yl)thio]-1,3-benzodioxole-5-carbonitrile] | 900 |
| C[C@@H](N)C(=O)N1CCCC(CCCn2c(Sc3cc4c(cc3Br)OCO4)nc3c(N)ncnc32)C1 (stereo partly drawn) [compound 136, 9-(3-{1-[(2R)-2-Aminopropanoyl]piperidin-3-yl}propyl)-8-[(6-bromo-1,3-benzodioxol-5-yl)thio]-9H-purin-6-amine] | 110 |
| CC(=O)NC(CCn1c(Sc2cc3c(cc2Br)OCO3)nc2c(N)ncnc21)C1CC1 (stereo not drawn) [compound 137, N-{3-[6-Amino-8-(6-bromo-benzo[1,3]dioxol-5-ylsulfanyl)-purin-9-yl]-1-cyclopropyl-propyl}-acetamide] | 240 |
| CC(=O)NC(CCn1c(Sc2cc3c(cc2Br)OCCO3)nc2c(N)ncnc21)C1CC1 (stereo not drawn) [compound 139, N-(3-{6-Amino-8-[(7-bromo-2,3-dihydro-1,4-benzodioxin-6-yl)thio]-9H-purin-9-yl}-1-cyclopropylpropyl)acetamide] | 240 |
| CC(=O)N1CCC(CCn2c(Sc3cc4c(cc3Br)OCCO4)nc3c(N)ncnc32)CC1 [compound 140, 9-[2-(1-Acetylpiperidin-4-yl)ethyl]-8-[(7-bromo-2,3-dihydro-1,4-benzodioxin-6-yl)thio]-9H-purin-6-amine] | 45 |
| Nc1ncnc2c1nc(Sc1cc3c(cc1Br)OCO3)n2CCC(NC(=O)CO)C1CC1 (stereo not drawn) [compound 141, N-(3-{6-Amino-8-[(6-bromo-1,3-benzodioxol-5-yl)thio]-9H-purin-9-yl}-1-cyclopropylpropyl)-2-hydroxyacetamide] | 170 |
| CN(C)C(CCn1c(Sc2cc3c(cc2Br)OCCO3)nc2c(N)ncnc21)C1CC1 (stereo not drawn) [compound 142, 8-[(7-Bromo-2,3-dihydro-1,4-benzodioxin-6-yl)thio]-9-[3-cyclopropyl-3-(dimethylamino)propyl]-9H-purin-6-amine] | 205 |
